Assays:
SKOV-3 WT = assay: Endocytosis elucidation with chemical inhibitors prior to NP(DiD) treatment, flow cytometry; type: cell-based; settings: inhibitor before NP treatment
Experimental: (§1) FIG. 19 NP(DiD) uptake following 24 h exposure in OVCAR-3 (a) and SKOV-3 (b). Uptake quantification measured using corrected total cell fluorescence method and plotted for 24 (c), 48 (d) and 72 h (e) NP(DiD) treatments. Endocytosis elucidation conducted using chemical inhibitors, prior to NP(DiD) treatments and cells analyzed using flow cytometry. Example of cell population positive for NP8 in SKOV-3 WT (f) and endocytosis pathway distribution graphs for OVCAR-3 WT (g) and SKOV-3 (h).
Internalization and quantification of nanoparticles was characterized using fluorescently labelled nanoparticles, Vybrant DiD™ loaded particles were fabricated (co-dissolution as previously described) followed by spin filtration to remove non-encapsulated dye. 2D Cell cultures were treated with NP(DiD) for 24, 48 and 72 h. […] Corrected total cell fluorescence (CTCF) was calculated.[36] Microtissue penetration was conducted using the same fluorescently labelled NPs. Spheroids (2×10^3 cells) were seeded 48 h prior to use, 10 spheroids per NP were treated for 24 h with 20 μL stock NP(DiD).[37] […] Data was visualized using MATLAB code form CellStream exports to create violin plots of total populations. […] Nanoparticle, cell counter staining and imaging all conducted as described above. Uptake thresholding into binary high and low uptake conditions was conducted using quantification histograms and manual identification of population peaks.

OVCAR-3 WT = assay: as above; type: cell-based; settings: inhibitor before NP treatment
Experimental: as §1
Internalization and quantification of nanoparticles was characterized using fluorescently labelled nanoparticles, Vybrant DiD™ loaded particles were fabricated (co-dissolution as previously described) followed by spin filtration to remove non-encapsulated dye. 2D Cell cultures were treated with NP(DiD) for 24, 48 and 72 h. 426 Cells were co-stained for nuclei using 16.2 μM Hoescht. Cells were imaged using CLSM or quantified following detachment using CellStream (A2 for DAPI channel, 428 B6 for DiD channel). Corrected total cell fluorescence (CTCF) was calculated.[36] Microtissue penetration was conducted using the same fluorescently labelled NPs. […] Uptake thresholding into binary high and low uptake conditions was conducted using quantification histograms and manual identification of population peaks.

Compound: CCN(CC)CCCC(C)Nc1ccnc2cc(Cl)ccc12 (stereo not shown) [chloroquine]
- increase in cell population positive for NPs (SKOV-3 WT): 3%
- increase in mean florescence (SKOV-3 WT): 3×10^5

Compound: NAV 2729
- drop in fluorescence (SKOV-3 WT): 90%
- drop in fluorescence (OVCAR-3 WT): 90%

— patent publication US20260263376A1, “THERAPEUTIC DELIVERY VECTORS COMPRISING AMPHIPHILIC BLOCK COPOLYMERS” (Swansea University, priority 2023, published 2026)
